Measured values from patent US7659081B2, “Determination of AM-binding proteins and the association of adrenomedullin (AM) therewith” (The United States of America as represented by the …, priority 1999, dated 2010).

What was measured:
factor H = factor H (Homo sapiens, UniProt P08603); experiment: Multi-well plate competition of fluorescein-labeled AM binding to factor H; parameters: purchased Sigma; details: 50 nM fluorescein-labeled AM; factor H 5 ng/well; increasing concentrations of unlabeled competitor
Sequence of factor H (P08603 19-1231): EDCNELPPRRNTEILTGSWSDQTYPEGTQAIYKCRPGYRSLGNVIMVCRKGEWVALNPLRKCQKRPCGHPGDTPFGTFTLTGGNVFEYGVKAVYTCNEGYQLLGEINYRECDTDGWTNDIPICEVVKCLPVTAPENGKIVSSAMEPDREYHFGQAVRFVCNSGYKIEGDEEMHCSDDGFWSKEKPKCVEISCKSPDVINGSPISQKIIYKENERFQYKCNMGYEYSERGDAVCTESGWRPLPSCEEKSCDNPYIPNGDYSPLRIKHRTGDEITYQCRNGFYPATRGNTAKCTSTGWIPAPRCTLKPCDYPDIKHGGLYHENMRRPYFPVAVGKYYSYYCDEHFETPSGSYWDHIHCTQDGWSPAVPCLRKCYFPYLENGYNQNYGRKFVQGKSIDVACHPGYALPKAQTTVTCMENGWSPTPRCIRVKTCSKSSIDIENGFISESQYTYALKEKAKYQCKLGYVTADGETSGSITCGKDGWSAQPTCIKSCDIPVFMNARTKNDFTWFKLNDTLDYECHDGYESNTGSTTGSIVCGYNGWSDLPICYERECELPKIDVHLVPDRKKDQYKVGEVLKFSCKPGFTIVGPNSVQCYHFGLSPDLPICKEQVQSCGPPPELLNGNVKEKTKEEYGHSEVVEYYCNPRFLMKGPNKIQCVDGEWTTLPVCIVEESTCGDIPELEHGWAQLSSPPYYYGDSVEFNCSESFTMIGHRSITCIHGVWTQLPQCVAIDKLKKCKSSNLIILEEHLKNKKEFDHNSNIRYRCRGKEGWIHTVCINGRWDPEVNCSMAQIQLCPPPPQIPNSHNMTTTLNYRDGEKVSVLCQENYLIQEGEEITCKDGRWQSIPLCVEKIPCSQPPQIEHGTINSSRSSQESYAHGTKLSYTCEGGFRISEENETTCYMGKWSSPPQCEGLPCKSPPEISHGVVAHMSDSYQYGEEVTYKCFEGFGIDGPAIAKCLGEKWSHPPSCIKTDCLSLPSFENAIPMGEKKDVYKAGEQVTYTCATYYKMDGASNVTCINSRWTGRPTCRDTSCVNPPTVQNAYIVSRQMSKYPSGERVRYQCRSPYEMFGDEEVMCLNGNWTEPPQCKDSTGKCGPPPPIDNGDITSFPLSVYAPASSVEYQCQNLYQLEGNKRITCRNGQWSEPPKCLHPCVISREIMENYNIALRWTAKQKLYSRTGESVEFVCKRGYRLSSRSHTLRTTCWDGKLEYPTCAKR
Description: Lane 1: horseradish peroxidase (5 μg), a glycosylated protein used as positive control; Lane 2: soybean trypsin inhibitor (5 μg), a non-glycosylated protein used as negative control; Lane 3: AMBP-1 (2 μg). […] Lane 1: isoelectric focusing markers; Lane 2: AMBP-1 (4 μg). […] Lane 1: AMBP-1 (100 ng); Lane 2: AMBP-1 (200 ng); Lane 3: commercially available human factor H (50 ng); Lane 4: human plasma (0.2 μl). […] Results represent one of two independent experiments. Values represent mean and standard deviation of three determinations. “B/B0” indicates the ratio of signals generated in the presence/absence of unlabeled competitor.
Alternatively, the AM/fH interaction was analyzed using a multi-well assay. In accordance with this assay, a 96-well polyvinylchloride (PVC) plate was coated with factor H (5 ng/well, Sigma, St. Louis, Mo.). The plate was blocked with a solution containing TBS, 0.1% ATC, and 0.1% TWEEN® 20 nonionic detergent, and then incubated with fluorescein-labeled AM (50 nM) for 2 hr. Prior to the development of the assay, the wells were incubated for various time periods with PBS or 3M NaSCN pH 7.4. Following this, the plate was washed and incubated with anti-fluorescein polyclonal antibody (1:1000, Molecular Probes) and ^125I-Protein A (Amersham Pharmacia Biotech). Radioactivity was determined using a gamma counter. FIG. 6B.

[1] = intravenous injection; cited from earlier work
pancreatic islets = experiment: Insulin secretion and cAMP in isolated pancreatic islets; assay type: cell-based, rat; details: islets with AM and/or factor H
Source text: A representative experiment is shown. Values for each treatment represent the mean and standard deviation of three independent wells. […] All values were statistically different (p<0.05) from the negative controls (first bar).
Pancreatic islets were isolated from 12 rats as previously described (A. Martínez et al., 2000, Endocrinology 141:406-411). Briefly, the heart of each rat was perfused with Hank's balanced salt solution (Sigma) to remove blood from pancreatic vessels. A small canula was inserted into the common biliary duct while the coledoco was sealed. Twenty to twenty-five milliliters of 0.4 mg/ml collagenase XI (Sigma) in Hank's solution was pumped through the canula until the pancreas was fully inflated. The pancreas was removed and incubated at 37° C. for 20 min. Following this, 20 ml of ice-cold Hank's solution was added and the pancreas dissociated by vigorous vortexing. After several washes, the islets were collected and distributed into 24 well plates using a dissecting microscope, with approximately 70 islets per well.
Freshly isolated islets were incubated in RPMI-1640 (Life Technologies) containing 5.6 mM glucose for 45 min at 37° C. […] Insulin and cAMP were measured by radioimmunoassay with commercial kits (Amersham, Arlington Heights, Ill.), according to the manufacturer's directions. […]

Effect on binding of fluorescein-labeled AM to factor H-coated plate (factor H): competitively inhibited
SMILES: CC[C@H](C)[C@H](NC(=O)[C@H](CCC(N)=O)NC(=O)[C@H](Cc1c[nH]cn1)NC(=O)[C@H](C)NC(=O)[C@H](CC(C)C)NC(=O)[C@H](CCCCN)NC(=O)[C@H](CCC(N)=O)NC(=O)[C@@H](NC(=O)[C@@H](NC(=O)[C@@H]1CSSC[C@H](NC(=O)CNC(=O)[C@H](Cc2ccccc2)NC(=O)[C@H](CO)NC(=O)[C@H](CCCNC(=N)N)NC(=O)[C@H](CC(C)C)NC(=O)CNC(=O)[C@H](CCC(N)=O)NC(=O)[C@H](Cc2ccccc2)NC(=O)[C@H](CC(N)=O)NC(=O)[C@H](CC(N)=O)NC(=O)[C@H](CCSC)NC(=O)[C@H](CO)NC(=O)[C@H](CCC(N)=O)NC(=O)[C@H](CCCNC(=N)N)NC(=O)[C@@H](N)Cc2ccc(O)cc2)C(=O)N[C@@H](CCCNC(=N)N)C(=O)N[C@@H](Cc2ccccc2)C(=O)NCC(=O)N[C@@H]([C@@H](C)O)C(=O)N1)[C@@H](C)O)C(C)C)C(=O)N[C@@H](Cc1ccc(O)cc1)C(=O)N[C@@H](CCC(N)=O)C(=O)N[C@@H](Cc1ccccc1)C(=O)N[C@H](C(=O)N[C@@H](CC(=O)O)C(=O)N[C@@H](CCCCN)C(=O)N[C@@H](CC(=O)O)C(=O)N[C@@H](CCCCN)C(=O)N[C@@H](CC(=O)O)C(=O)N[C@@H](CC(N)=O)C(=O)N[C@H](C(=O)N[C@@H](C)C(=O)N1CCC[C@H]1C(=O)N[C@@H](CCCNC(=N)N)C(=O)N[C@@H](CO)C(=O)N[C@@H](CCCCN)C(=O)N[C@H](C(=O)N[C@@H](CO)C(=O)N1CCC[C@H]1C(=O)N[C@@H](CCC(N)=O)C(=O)NCC(=O)N[C@@H](Cc1ccc(O)cc1)C(N)=O)[C@@H](C)CC)C(C)C)[C@@H](C)O [AM, Adrenomedullin]
Insulin and glucose in the bloodstream [1]: reduces the levels of insulin in the bloodstream with a concomitant increase in circulating glucose
cAMP in islets (pancreatic islets): concomitant elevations on cAMP
Insulin secretion (pancreatic islets; 20.6 mM glucose, 45 min): dose-dependent decreases in insulin secretion
